Source: ChEMBL document CHEMBL1201862, “PubChem BioAssay data set” (2004)
Values belong to the compound of their own block, whether it stands above or below them. Active and inactive are the calls of the source.

Legend:
[1] = mitochondrial function rescue without frataxin homolog – Friedreich's ataxia, plus single-dose screen, dose response (AID 1465); assay type: functional;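 also: yeast depleted of Yfh1p frataxin homolog grown on glycerol needing respiration; WST-1 tetrazolium dye reduction as measure of cellular dehydrogenase metabolic activity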
[2] = target: T1, Mucolipin-3 (Homo sapiens, UniProt Q8TDD5); experiment: Fluorescence counterscreen assay for […] agonists: dose response cell-based high-throughput screening assay to identify agonists of the transient receptor potential channel ML3 (TRPML3). [Related pubchem assays: 1424, 1448 ]; assay type: functional
T1 sequence (Q8TDD5 whole entry): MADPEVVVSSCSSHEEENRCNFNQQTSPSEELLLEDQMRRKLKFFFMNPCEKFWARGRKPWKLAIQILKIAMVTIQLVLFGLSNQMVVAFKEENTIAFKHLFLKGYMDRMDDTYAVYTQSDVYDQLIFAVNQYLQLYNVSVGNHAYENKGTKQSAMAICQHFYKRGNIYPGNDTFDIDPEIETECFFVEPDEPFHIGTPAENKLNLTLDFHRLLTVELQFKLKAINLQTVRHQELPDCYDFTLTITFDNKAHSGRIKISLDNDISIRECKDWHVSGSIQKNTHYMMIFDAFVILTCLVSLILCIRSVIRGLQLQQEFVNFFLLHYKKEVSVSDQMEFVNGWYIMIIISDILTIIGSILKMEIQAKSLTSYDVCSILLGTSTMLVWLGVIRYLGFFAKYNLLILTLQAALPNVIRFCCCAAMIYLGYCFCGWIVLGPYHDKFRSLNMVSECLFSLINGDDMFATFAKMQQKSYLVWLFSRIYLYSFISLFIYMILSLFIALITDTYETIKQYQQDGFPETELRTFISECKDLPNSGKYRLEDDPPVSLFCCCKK

[3] = target: Ion channel NompC (Danio rerio, UniProt Q7T1G6); experiment: Dose response cell-based high-throughput screening assay for agonists of the transient receptor potential channel N1 (TRPN1). [Related pubchem assays (depositor defined):AID1424, AID1448]; assay type: functional
[4] = target: Troponin, cardiac muscle (Homo sapiens, UniProt P19429+P45379+P63316); experiment: Fluorescence-based biochemical high throughput dose response assay for activators of the calcium sensitivity of cardiac Regulated Thin Filaments (RTF). [Related pubchem assays (depositor defined):AID493008, AID493018, AID504382, AID504383]; assay type: protein-complex assay
[5] = viability of uninfected HEp-2 cells – cell-based, HTS, cytotoxicity control for RSV inhibitor project, dose response (AID 2410); assay type: functional; conditions: human respiratory syncytial virus
[6] = target: T2, Neuropeptide Y receptor type 2 (Homo sapiens, UniProt P49146); experiment: Fluorescence-based cell-based high-throughput dose response assay for agonists of NPY-Y2. [Related pubchem assays: 1703 (Screening assay (CNGC inhibitors).), 1359 (Screening assay (NPY-Y2 potentiators or agonists).), 1304 (Screening assay (NPY-Y1 potentiators or agonists).), 1710 (Screening assay (NPY-Y2 agonists).), 1791 (Summary AID.)]; assay type: functional
T2 sequence (P49146 whole entry): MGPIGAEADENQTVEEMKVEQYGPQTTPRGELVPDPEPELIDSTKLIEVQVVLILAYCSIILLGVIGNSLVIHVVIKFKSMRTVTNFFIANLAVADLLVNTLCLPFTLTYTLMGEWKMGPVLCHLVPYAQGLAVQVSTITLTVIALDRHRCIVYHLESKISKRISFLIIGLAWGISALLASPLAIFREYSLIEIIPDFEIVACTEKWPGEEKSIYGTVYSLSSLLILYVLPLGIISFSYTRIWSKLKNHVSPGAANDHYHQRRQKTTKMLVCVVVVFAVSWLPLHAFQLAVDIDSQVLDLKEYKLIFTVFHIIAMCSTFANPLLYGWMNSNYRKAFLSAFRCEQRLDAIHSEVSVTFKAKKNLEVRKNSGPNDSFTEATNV

[7] = test system: HEK293; experiment: Fluorescence-based counterscreen for potentiators or agonists of NPY-Y2: cell-based high-throughput dose response assay to identify inhibitors of cyclic nucleotide gated ion channel (CNGC) activity. In this assay, the parental HEK293 cell line transfected with a cyclic-nucleotide gated ion channel (CNGC)-based cAMP sensor is used to measure inhibition of isoproterenol-induced CNGC activity by test compound.; assay type: functional; conditions: Homo sapiens;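 also: stimulus is 1 µM isoproterenol at EC100 plus PDE inhibitor Ro 20-1724 at 25 µM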
[8] = target: T3, Neuropeptide Y receptor type 1 (Homo sapiens, UniProt P25929); experiment: Fluorescence-based counterscreen for agonists of NPY-Y2: cell-based high-throughput dose response assay for agonists of NPY-Y1.; assay type: functional
T3 sequence (P25929 whole entry): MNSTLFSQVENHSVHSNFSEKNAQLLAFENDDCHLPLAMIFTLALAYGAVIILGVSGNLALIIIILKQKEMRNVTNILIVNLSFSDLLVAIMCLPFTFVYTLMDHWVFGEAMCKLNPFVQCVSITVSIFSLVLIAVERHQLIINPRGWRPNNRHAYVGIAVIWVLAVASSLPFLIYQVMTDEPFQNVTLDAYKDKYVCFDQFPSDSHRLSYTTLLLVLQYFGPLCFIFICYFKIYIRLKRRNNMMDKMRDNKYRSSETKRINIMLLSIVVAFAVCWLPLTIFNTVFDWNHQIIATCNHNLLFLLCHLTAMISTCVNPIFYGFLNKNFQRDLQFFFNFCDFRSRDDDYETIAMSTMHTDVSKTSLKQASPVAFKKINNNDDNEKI

[9] = target: T2, Neuropeptide Y receptor type 2; assay type: functional, cell-based
[10] = target: T3, Neuropeptide Y receptor type 1; assay type: functional
[11] = target: Luciferin 4-monooxygenase (Photinus pyralis, UniProt P08659); experiment: Counter Screen for Luciferase-based Assay Positives. [Related pubchem assays: 620, 618, 411 ]
[12] = Luminescence-based counterscreen assay for KLF5 inhibitors: dose response cell-based high throughput screening assay to identify cytotoxic compounds using the IEC-6 intestinal epithelial cell line. [Related pubchem assays: 1700 (Primary screen.), 1834 (Confirmation screen.), 1858 (Summary AID.), 1905 (Counterscreen.)]; assay type: functional
[13] = test system: HT-1080; experiment: HT1080 cell viability loss – fluorescence readout (AID 620); assay type: functional, cell-based; conditions: Homo sapiens

Luciferin 4-monooxygenase, sequence (P08659 whole entry): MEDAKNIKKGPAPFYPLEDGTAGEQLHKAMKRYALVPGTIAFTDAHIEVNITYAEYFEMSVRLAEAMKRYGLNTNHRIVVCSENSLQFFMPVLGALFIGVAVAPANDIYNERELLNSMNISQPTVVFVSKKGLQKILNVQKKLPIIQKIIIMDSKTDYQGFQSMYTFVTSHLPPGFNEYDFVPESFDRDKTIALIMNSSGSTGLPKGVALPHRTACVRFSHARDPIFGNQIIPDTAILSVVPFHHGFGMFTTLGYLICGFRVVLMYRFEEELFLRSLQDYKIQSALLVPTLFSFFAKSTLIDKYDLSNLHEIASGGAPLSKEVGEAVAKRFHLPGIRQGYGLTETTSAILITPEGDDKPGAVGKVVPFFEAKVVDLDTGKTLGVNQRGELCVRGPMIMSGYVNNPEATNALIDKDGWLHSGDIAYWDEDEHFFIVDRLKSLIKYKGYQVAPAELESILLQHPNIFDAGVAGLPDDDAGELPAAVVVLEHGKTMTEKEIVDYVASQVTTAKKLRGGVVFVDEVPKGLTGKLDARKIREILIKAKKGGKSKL
Ion channel NompC, sequence (Q7T1G6 whole entry): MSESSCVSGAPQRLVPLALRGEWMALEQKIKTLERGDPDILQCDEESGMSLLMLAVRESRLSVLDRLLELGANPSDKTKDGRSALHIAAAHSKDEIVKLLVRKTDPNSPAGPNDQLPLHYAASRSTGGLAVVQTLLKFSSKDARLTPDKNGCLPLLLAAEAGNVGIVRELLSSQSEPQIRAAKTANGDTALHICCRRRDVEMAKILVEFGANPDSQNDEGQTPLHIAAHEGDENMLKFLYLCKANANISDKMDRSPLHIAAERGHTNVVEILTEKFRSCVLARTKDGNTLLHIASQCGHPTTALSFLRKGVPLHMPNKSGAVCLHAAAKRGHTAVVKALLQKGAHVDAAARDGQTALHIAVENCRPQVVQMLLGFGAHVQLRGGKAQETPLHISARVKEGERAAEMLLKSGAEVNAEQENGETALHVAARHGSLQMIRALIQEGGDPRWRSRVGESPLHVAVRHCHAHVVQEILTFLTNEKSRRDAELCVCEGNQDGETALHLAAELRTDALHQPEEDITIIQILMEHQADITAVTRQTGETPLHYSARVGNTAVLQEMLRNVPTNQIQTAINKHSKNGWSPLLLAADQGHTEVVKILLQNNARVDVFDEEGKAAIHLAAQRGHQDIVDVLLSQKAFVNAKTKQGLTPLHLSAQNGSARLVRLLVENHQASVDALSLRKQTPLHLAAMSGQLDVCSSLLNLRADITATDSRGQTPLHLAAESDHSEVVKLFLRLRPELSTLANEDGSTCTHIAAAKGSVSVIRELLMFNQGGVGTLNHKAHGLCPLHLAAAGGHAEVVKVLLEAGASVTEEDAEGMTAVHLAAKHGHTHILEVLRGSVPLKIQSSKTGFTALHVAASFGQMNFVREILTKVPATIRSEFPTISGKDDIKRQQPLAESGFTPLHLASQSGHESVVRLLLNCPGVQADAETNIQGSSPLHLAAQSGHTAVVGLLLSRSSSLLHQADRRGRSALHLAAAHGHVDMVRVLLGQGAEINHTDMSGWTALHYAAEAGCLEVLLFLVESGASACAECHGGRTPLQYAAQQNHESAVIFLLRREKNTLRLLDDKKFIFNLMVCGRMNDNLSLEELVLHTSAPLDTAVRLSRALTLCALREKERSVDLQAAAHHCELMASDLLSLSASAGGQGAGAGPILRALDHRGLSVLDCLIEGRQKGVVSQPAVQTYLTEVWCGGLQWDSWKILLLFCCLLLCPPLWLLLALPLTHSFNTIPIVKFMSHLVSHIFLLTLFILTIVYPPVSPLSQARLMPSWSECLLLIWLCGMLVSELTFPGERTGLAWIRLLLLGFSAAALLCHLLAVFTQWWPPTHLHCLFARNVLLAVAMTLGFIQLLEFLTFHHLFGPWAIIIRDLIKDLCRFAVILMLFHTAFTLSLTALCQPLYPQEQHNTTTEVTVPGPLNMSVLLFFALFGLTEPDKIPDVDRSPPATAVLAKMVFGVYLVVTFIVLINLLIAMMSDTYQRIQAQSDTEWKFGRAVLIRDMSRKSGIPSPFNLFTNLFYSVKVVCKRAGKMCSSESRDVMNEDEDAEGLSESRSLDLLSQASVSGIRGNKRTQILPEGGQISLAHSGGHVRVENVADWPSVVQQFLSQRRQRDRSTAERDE

EC50 [2]: 12.2 µM (not active)
EC50 [3]: 5.92 µM (active)
EC50 [4]: 0.87 µM (active)
Compound: CN1CCS/C1=C/C=C1\SC(=S)N(CC(=O)O)C1=O
EC50 [1]: > 100 µM (active)

Compound: CC(=O)Nc1ccc(-c2cc3ccccc3o2)cc1
CC50 [5]: 28.2 µM (active)
EC50 [6]: > 35.4 µM (not active)
EC50 [7]: 27.4 µM (not active)
EC50 [8]: 28.9 µM (not active)

IC50 [9]: 4.32 µM (active)
IC50 [10]: 5.31 µM (active)
Compound: COC(=O)c1cc(Cl)c(NC(=O)c2ccc(C(C)(C)C)cc2)cc1OC

Compound: O=C(Nc1nccs1)c1cc2c(s1)CCCCC2
EC50 [11]: 8.26 µM (active)
IC50 [12]: 33.2 µM (not active)
EC50 [13]: > 50 µM (not active)
